For orientation: solubility means the concentration that dissolves in the medium under given conditions.

Read-outs that look alike come from different tables or passages of the source. Where a SMILES comes first, the peptide text is derived from it. Some results are limits rather than exact numbers.

The nature of data set [1]: Chemical stability (RP-HPLC normalized purity after incubation at 40° C.). The class given is physicochemical. To be noted: 14-day incubation, 0.2 mg/ml, normalized purity (area-%); for pH 7 normalized stability: pH 7, 40° C. Here is the method: Samples of each test peptide were dissolved in MILLIQ™ water, and the pH of the solution was adjusted to pH 6, 7, 7.5 or 9 using either HCl or NaOH. The final peptide concentration was 0.2 mg/ml. Samples were placed in glass vials and incubated at 40° C. The samples were analyzed by RP-HPLC on a C18 column with gradient elution using an acetonitrile/TFA/water eluent system. The area-percentage (area-%) of the main peak after incubation time T=t (relative to time T=0) was determined by UV spectroscopy at 220 nm.
The purity was first determined as follows: Purity(area-%)=(area of main peak/total area of all peaks)×100.
The purity was then normalized between time points by setting purity at time 0 (T=0) to 100 for each pH value for a given peptide, as follows: Normalized area-% at time t(T=t)=[area-%(T=t)/area-%(T=0)]×100.
The chemical stability assessment results after 14-day incubation (in the form of normalized purity values) are summarized in Table 4.

The nature of data set [2]: Solubility assessment (turbidity absorbance at 325 nm). The format is physicochemical. Here is the method: A stock solution of the test peptide (2 mg/ml; determined from the weighed amount of peptide) in demineralized water adjusted to pH 2.5 with HCl was prepared, and aliquots were diluted 1:1 in 100 mM acetate buffer (pH 4.0 and pH 5.0), 100 mM histidine buffer (pH 6.0 and pH 7.0) and 100 mM phosphate buffer (pH 6.0, pH 7.0 and pH 7.5), respectively, and loaded in a standard flat-bottom, non-sterile 96-well UV Microplate. The absorbance of samples (single samples, n=1) at 280 and 325 nm was measured in an absorbance-based plate reader, which was preheated to ambient temperature (typically 25° C.).

The mark [3] stands for this setting: 100 mM acetate buffer pH 4.0, ambient temperature, read-out: Solubility Acetate buffer pH 4.
Setting [4] is: 100 mM acetate buffer pH 5.0, ambient temperature, read-out: Solubility Acetate buffer pH 5.
Where [5] appears, read: 100 mM histidine buffer pH 6.0, ambient temperature, read-out: Solubility Histidine buffer pH 6.
The mark [6] stands for this setting: 100 mM histidine buffer pH 7.0, ambient temperature, read-out: Solubility Histidine buffer pH 7.
[7] abbreviates: 100 mM phosphate buffer pH 6.0, ambient temperature, read-out: Solubility Phosphate buffer pH 6.
[8] abbreviates: 100 mM phosphate buffer pH 7.0, ambient temperature, read-out: Solubility Phosphate buffer pH 7.
The mark [9] stands for this setting: 100 mM phosphate buffer pH 7.5, ambient temperature, read-out: Solubility Phosphate buffer pH 7.5.

For the molecule `CC[C@H](C)[C@H](NC(=O)[C@H](Cc1ccccc1)NC(=O)[C@H](CC(=O)O)NC(=O)[C@H](CCCNC(=N)N)NC(=O)[C@H](C)NC(=O)[C@H](C)NC(=O)[C@H](CCC(N)=O)NC(=O)[C@H](CCCCNC(=O)CC[C@H](NC(=O)CCCCCCCCCCCCCCCCC(=O)O)C(=O)O)NC(=O)[C@H](CC(=O)O)NC(=O)[C@H](CC(C)C)NC(=O)[C@@H](NC(=O)[C@@H](NC(=O)[C@H](C)NC(=O)[C@H](CC(C)C)NC(=O)[C@H](CCC(=O)O)NC(=O)[C@H](CO)NC(=O)[C@H](CO)NC(=O)[C@H](Cc1ccccc1)NC(=O)[C@H](CO)NC(=O)CNC(=O)[C@H](CCC(=O)O)NC(=O)C(C)(C)NC(=O)[C@@H](N)Cc1c[nH]cn1)[C@@H](C)O)[C@@H](C)CC)C(=O)N[C@@H](C)C(=O)N[C@@H](Cc1c[nH]c2ccccc12)C(=O)N[C@@H](CC(C)C)C(=O)N[C@H](C(=O)N[C@@H](CCC(N)=O)C(=O)N[C@@H](Cc1c[nH]cn1)C(=O)N[C@@H](CCCCN)C(=O)N[C@H](C(=O)N[C@H](C(=O)N[C@@H](CC(=O)O)C(=O)O)[C@@H](C)O)[C@@H](C)CC)[C@@H](C)CC` [B, reference compound] (HELM PEPTIDE1{H.[Aib].E.G.S.F.S.S.E.L.A.T.I.L.D.K.Q.A.A.R.D.F.I.A.W.L.I.Q.H.K.I.T.D}|PEPTIDE2{[O=C(O)CCCCCCCCCCCCCCCCC(=O)[*:2]].[gGlu]}$PEPTIDE1,PEPTIDE2,16:R3-2:R2$$$V2.0), the “pH 6 normalized stability” value in data set [1] (pH 6, 40° C.) is reported as “A (>90% normalised stability)”. The “pH 7 normalized stability” value in data set [1] is given as “A (>90% normalised stability)”.

Take `CC[C@H](C)[C@H](NC(=O)[C@H](CC(C)C)NC(=O)[C@H](Cc1c[nH]c2ccccc12)NC(=O)[C@H](C)NC(=O)[C@@H](NC(=O)[C@H](Cc1ccccc1)NC(=O)[C@H](CC(=O)O)NC(=O)[C@H](CCCNC(=N)N)NC(=O)[C@H](C)NC(=O)[C@H](C)NC(=O)[C@H](CC(C)C)NC(=O)[C@H](CCCCNC(=O)CC[C@H](NC(=O)CCCCCCCCCCCCCCCCC(=O)O)C(=O)O)NC(=O)[C@H](CC(=O)O)NC(=O)[C@H](CC(C)C)NC(=O)[C@@H](NC(=O)[C@@H](NC(=O)[C@H](C)NC(=O)[C@H](CC(C)C)NC(=O)[C@H](CCC(=O)O)NC(=O)[C@H](CO)NC(=O)[C@@H](NC(=O)[C@H](Cc1ccccc1)NC(=O)[C@H](CO)NC(=O)CNC(=O)[C@H](CCC(=O)O)NC(=O)C(C)(C)NC(=O)[C@@H](N)Cc1c[nH]cn1)[C@@H](C)O)[C@@H](C)O)[C@@H](C)CC)[C@@H](C)CC)C(=O)N[C@@H](C)C(=O)N[C@@H](Cc1c[nH]cn1)C(=O)N[C@@H](CCCCN)C(=O)N[C@H](C(=O)N[C@H](C(=O)N[C@@H](CC(=O)O)C(=O)O)[C@@H](C)O)[C@@H](C)CC` [Compound 14] (HELM PEPTIDE1{H.[Aib].E.G.S.F.T.S.E.L.A.T.I.L.D.K.L.A.A.R.D.F.I.A.W.L.I.A.H.K.I.T.D}|PEPTIDE2{[O=C(O)CCCCCCCCCCCCCCCCC(=O)[*:2]].[gGlu]}$PEPTIDE1,PEPTIDE2,16:R3-2:R2$$$V2.0): the “pH 7 normalized stability” value in data set [1] is listed as “A (>90% normalised stability)”.

As for `CC[C@H](C)[C@H](NC(=O)[C@H](Cc1ccccc1)NC(=O)[C@H](CC(=O)O)NC(=O)[C@H](CCCNC(=N)N)NC(=O)[C@H](C)NC(=O)[C@H](C)NC(=O)[C@H](CCC(N)=O)NC(=O)[C@H](CCCCNC(=O)CC[C@H](NC(=O)CCCCCCCCCCCCCCCCC(=O)O)C(=O)O)NC(=O)[C@H](CC(=O)O)NC(=O)[C@H](CC(C)C)NC(=O)[C@@H](NC(=O)[C@@H](NC(=O)[C@H](C)NC(=O)[C@H](CC(C)C)NC(=O)[C@H](CCC(=O)O)NC(=O)[C@H](CO)NC(=O)[C@H](CO)NC(=O)[C@H](Cc1ccccc1)NC(=O)[C@@H](NC(=O)CNC(=O)[C@H](CCC(=O)O)NC(=O)C(C)(C)NC(=O)[C@@H](N)Cc1c[nH]cn1)[C@@H](C)O)[C@@H](C)O)[C@@H](C)CC)C(=O)N[C@@H](C)C(=O)N[C@@H](Cc1c[nH]c2ccccc12)C(=O)N[C@@H](CC(C)C)C(=O)N[C@H](C(=O)N[C@@H](CCC(=O)O)C(=O)N[C@@H](Cc1c[nH]cn1)C(=O)N[C@@H](CCCCN)C(=O)N[C@H](C(=O)N[C@H](C(=O)N[C@@H](CC(=O)O)C(=O)O)[C@@H](C)O)[C@@H](C)CC)[C@@H](C)CC` [Compound 20] (HELM PEPTIDE1{H.[Aib].E.G.T.F.S.S.E.L.A.T.I.L.D.K.Q.A.A.R.D.F.I.A.W.L.I.E.H.K.I.T.D}|PEPTIDE2{[O=C(O)CCCCCCCCCCCCCCCCC(=O)[*:2]].[gGlu]}$PEPTIDE1,PEPTIDE2,16:R3-2:R2$$$V2.0), the solubility in data set [2] (setting [3]) is less than 1000 µg/mL; in data set [2] (setting [4]), less than 1000 µg/mL; in data set [2] (setting [5]), not below 1000 µg/mL; in data set [2] (setting [6]), not below 1000 µg/mL; in data set [2] (setting [7]) it was not below 1000 µg/mL; in data set [2] (setting [8]), not below 1000 µg/mL. In data set [2] (setting [9]), the solubility is not below 1000 µg/mL.

For the molecule `CC[C@H](C)[C@H](NC(=O)[C@H](Cc1ccccc1)NC(=O)[C@H](CC(=O)O)NC(=O)[C@H](CCCNC(=N)N)NC(=O)[C@H](C)NC(=O)[C@H](C)NC(=O)[C@H](CCC(N)=O)NC(=O)[C@H](CCCCNC(=O)CC[C@H](NC(=O)CCCCCCCCCCCCCCCCC(=O)O)C(=O)O)NC(=O)[C@H](CC(=O)O)NC(=O)[C@H](CC(C)C)NC(=O)[C@@H](NC(=O)[C@@H](NC(=O)[C@H](C)NC(=O)[C@H](CC(C)C)NC(=O)[C@H](CCC(=O)O)NC(=O)[C@H](CO)NC(=O)[C@@H](NC(=O)[C@H](Cc1ccccc1)NC(=O)[C@H](CO)NC(=O)CNC(=O)[C@H](CCC(=O)O)NC(=O)C(C)(C)NC(=O)[C@@H](N)Cc1c[nH]cn1)[C@@H](C)O)[C@@H](C)O)[C@@H](C)CC)C(=O)N[C@@H](C)C(=O)N[C@@H](Cc1c[nH]c2ccccc12)C(=O)N[C@@H](CC(C)C)C(=O)N[C@H](C(=O)N[C@@H](Cc1ccc(O)cc1)C(=O)N[C@@H](Cc1c[nH]cn1)C(=O)N[C@@H](CCCCN)C(=O)N[C@H](C(=O)N[C@H](C(=O)N[C@@H](CC(=O)O)C(=O)O)[C@@H](C)O)[C@@H](C)CC)[C@@H](C)CC` [Compound 27] (HELM PEPTIDE1{H.[Aib].E.G.S.F.T.S.E.L.A.T.I.L.D.K.Q.A.A.R.D.F.I.A.W.L.I.Y.H.K.I.T.D}|PEPTIDE2{[O=C(O)CCCCCCCCCCCCCCCCC(=O)[*:2]].[gGlu]}$PEPTIDE1,PEPTIDE2,16:R3-2:R2$$$V2.0), the solubility in data set [2] (setting [3]) is less than 1000 µg/mL; in data set [2] (setting [4]) it was less than 1000 µg/mL; in data set [2] (setting [5]), not below 1000 µg/mL; in data set [2] (setting [6]) it was not below 1000 µg/mL; in data set [2] (setting [7]), not below 1000 µg/mL; in data set [2] (setting [8]), not below 1000 µg/mL. In addition, the solubility in data set [2] (setting [9]) was not below 1000 µg/mL.

For the molecule `CC[C@H](C)[C@H](NC(=O)[C@H](Cc1ccccc1)NC(=O)[C@H](CC(=O)O)NC(=O)[C@H](CCCNC(=N)N)NC(=O)[C@H](C)NC(=O)[C@H](C)NC(=O)[C@H](CC(C)C)NC(=O)[C@H](CC(N)=O)NC(=O)[C@H](CC(=O)O)NC(=O)[C@H](CC(C)C)NC(=O)[C@@H](NC(=O)[C@@H](NC(=O)[C@H](CC(N)=O)NC(=O)[C@H](CCSC)NC(=O)[C@H](CCC(=O)O)NC(=O)[C@H](CC(=O)O)NC(=O)[C@H](CO)NC(=O)[C@H](Cc1ccccc1)NC(=O)[C@H](CO)NC(=O)CNC(=O)[C@H](CC(=O)O)NC(=O)CNC(=O)[C@@H](N)Cc1c[nH]cn1)[C@@H](C)O)[C@@H](C)CC)C(=O)N[C@@H](CC(N)=O)C(=O)N[C@@H](Cc1c[nH]c2ccccc12)C(=O)N[C@@H](CC(C)C)C(=O)N[C@H](C(=O)N[C@@H](CCC(N)=O)C(=O)N[C@H](C(=O)N[C@@H](CCCCN)C(=O)N[C@H](C(=O)N[C@H](C(=O)N[C@@H](CC(=O)O)C(=O)O)[C@@H](C)O)[C@@H](C)CC)[C@@H](C)O)[C@@H](C)CC` [Teduglutide, [Gly2]-hGLP-2 (1-33), reference compound], the solubility in data set [2] (setting [3]) is less than 1000 µg/mL; in data set [2] (setting [4]), less than 1000 µg/mL; in data set [2] (setting [5]) it was less than 1000 µg/mL; in data set [2] (setting [6]), not below 1000 µg/mL; in data set [2] (setting [7]), less than 1000 µg/mL; in data set [2] (setting [8]) it was less than 1000 µg/mL. The solubility in data set [2] (setting [9]) is not below 1000 µg/mL.

Source of the values: US11395847B2, “Acylated GLP-1/GLP-2 dual agonists” (Zealand Pharma A/S, priority 2016, dated 2022).
